Laboratory results reported in PMC10753699, “Synthesis of Some New 1,3,4-Oxadiazole Derivatives and Evaluation of Their Anticancer Activity” (ACS Omega, 2023).

Legend:
A549 cells [1] = test: Mitochondrial membrane depolarization (JC-1, flow cytometry); assay type: cell-based, human; details: A549, IC50 concentration, 24 h
Method: Staining of cells with JC-1 was realized according to the manufacturer’s recommendations of BD, Pharmingen Flow cytometry kit. […] For this purpose, cells were seeded at an optimal density in six-well plates (not exceeding 1 × 10^6/mL cells). The cells were then incubated with the substances to be tested at the appropriate concentration and time. After the treatment, each cell suspension was taken into a 15 mL polystyrene centrifuge tube and the cells were centrifuged at 400g for 5 min and removed from the supernatant. 0.5 mL of a freshly prepared working solution was added to each pellet, and the solution was vortexed. The test cells were soaked in a JC-1 working solution at 37 °C for 10–15 min, and the cells were washed twice. In the first wash, 2 mL of 1X assay buffer was added and the cells were suspended sensitively. Then, the cells were centrifuged at 400g for 5 min and the supernatant was removed, carefully. In the second wash, 1 mL of 1X assay buffer was added and vortexed. After the cells were centrifuged at 400g for 5 min, each cell pellet was suspended in 0.5 mL 1X assay buffer and vortexed. Finally, the cell was analyzed by a flow cytometer.

MMP-9 enzyme = molecular target: T1, MMP-9 enzyme (Homo sapiens, UniProt P14780); test: MMP-9 colorimetric inhibition assay; assay type: biochemical; details: for inhibition at 100 µg/mL: at 100 μg/mL
T1 construct: purchased EnzoLife Sciences Inc. (Farmingdale, New York, NY, USA)
T1 sequence (P14780 107-444 limits assumed): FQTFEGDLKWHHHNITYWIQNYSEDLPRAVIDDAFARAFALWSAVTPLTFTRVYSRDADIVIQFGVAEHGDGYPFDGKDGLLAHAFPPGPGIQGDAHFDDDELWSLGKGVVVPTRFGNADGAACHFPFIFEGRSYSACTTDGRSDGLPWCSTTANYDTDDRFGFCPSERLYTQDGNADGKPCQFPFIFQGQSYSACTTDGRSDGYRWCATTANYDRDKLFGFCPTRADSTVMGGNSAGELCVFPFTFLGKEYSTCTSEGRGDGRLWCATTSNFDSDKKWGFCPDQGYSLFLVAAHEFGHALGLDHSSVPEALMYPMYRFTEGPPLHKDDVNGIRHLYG
From the text: As described in our previous study,[36] the method was applied in exactly the same manner. EnzoLife Sciences Inc. provided MMP-9 colorimetric kits (Farmingdale, New York, NY, USA). The MMP Colorimetric Drug Discovery Kits are a comprehensive test technique that uses a thiopeptide (Ac-PLG-[2-mercapto-4-methyl-pentanoyl]-LG-OC2H5) as a chromogenic substrate to screen MMP inhibitors. Using a microplate reader (BioTek, PowerWave, Gen5 software, Winooski, VT, USA) at room temperature, the UV absorbance was measured at 412 nm. NNGH was employed as an inhibitor of control.

A549 cells [2] = test: Early/late apoptosis by Annexin V-FITC/PI flow cytometry; assay type: cell-based, human; details: A549, IC50 dose, 24 h incubation
Method: Phosphatidylserine externalization, a marker of early apoptosis, was assessed using the FITC Annexin V apoptosis detection kit (BD Pharmingen, San Jose, CA, USA) on a BD FACSAria flow cytometer. Following their collection, the A549 and L929 cells were twice washed in ice-cold PBS before being resuspended in 100 μL of binding buffer. The cells were treated with a volume of 5 μL (5 μg/mL) of Annexin V-FITC and PI, and they were incubated for 15 min at room temperature (20–25 °C) in the dark. Following that, 400 μL of binding buffer was added to the combination samples, and FACSDiva version 6.1.1 was used to analyze the samples on a BD FACSAria flow cytometer.

C6 rat glioma cell line = test: MTT cell viability / cytotoxicity on C6; assay type: cell-based; details: mean ± S.D. of three determinations
Method: (§1) The MTT (3-(4,5-dimethylthiazol-2-yl)-2,5-diphenyltetrazolium bromide) method was applicated to assess the cell viability of L929, C6 and A549 cell lines against the tested compounds according to the reported data.[51] In 96-well plates with a flat bottom, the A549, C6, and L929 cells were cultivated at a density of 5 × 10^3 cells per well. […] After addition, they were incubated for a full day in culture wells. Following the incubation period, 20 μL of phosphate-buffered saline (PBS) (Gibco, Paisley, UK) containing 5 mg/mL MTT powder (Sigma-Aldrich, St. Louis, MO, USA) was added to each well. The medium was taken out of the plate and replaced with 100 μL of DMSO in each well to dissolve the dye. This was left for 2 to 4 h under the same conditions and then left for 10 min. At the conclusion of the procedure, purple formazan, the reduction product of the MTT agent, was formed by the mitochondrial dehydrogenase enzyme of intact cells. A microtiter plate reader (BioTek Plate Reader, Winooski, VT, USA) was used to measure the cells at 540 nm. Cell viability was measured as a percentage and contrasted with that of the cells in the control group. Half-maximal inhibitory concentration 50 (IC50) values were determined by repeating each concentration in three wells and identifying the drug concentrations that decreased the absorbance to 50% of control values. The medium control served as the basis for calculating the percentage of viable cells.

A549 cells [3] = test: Cell cycle analysis by flow cytometry; assay type: cell-based, human; details: A549, 24 h incubation
Method: Following a 24 h incubation period with the compounds, a cell cycle analysis measurement methodology was implemented in compliance with the manufacturer’s instructions for A549 cells (BD, Biosciences). Next, the cells were immersed in citrate buffer for a short while. At room temperature, the cells were centrifuged for 5 min at 400 g. After the supernatant was decanted, 250 μL of solution A was added to the pellet, and it was allowed to sit at room temperature for 10 min. Solution B (200 μL) was then added, carefully mixed, and incubated at room temperature for 10 min. Solution C (200 μL) was then added. It was gently mixed, allowed to stand at 4 °C for 10 min in the dark, and then examined using BD Bioscience’s MODFID software on a flow cytometer. This method was applied in our previous study.[54]

caspase-3 = test: Caspase-3 activation in A549 cells; assay type: cell-based, human; details: A549, IC50 of the compounds, 24 h
Method: The Spectrofluorometric Caspase-3 Assay kit (BD Pharmingen, Franklin Lakes, NJ) was used to assess the activation of caspase-3. The purpose of the kit was to measure the early indicator of cells going through apoptosis, known as caspase-3 or the DEVD-cleaving activity. First, 1 × 10^6 cells/mL of cells were resuspended in cold cell lysis buffer, rinsed with PBS, and then allowed to sit on ice for 30 min. […] In each reaction, a well containing 0.2 mL of 1 x HEPES buffer was filled with […] of reconstituted AcDEVD-AMC, a synthetic tetrapeptide fluorogenic substrate for caspase-3 activity. Each reaction/well received 20 μL of cell lysate. The reaction mixtures were incubated at 37 °C for 1 h. Using a microplate reader (Perkin-Elmer/Victor/X3) with an excitation wavelength of 380 nm and an emission wavelength of 460 nm, the amount of AMC released from Ac-DEVD-AMC was quantified. When compared with controls, apoptotic cell lysates containing active caspase-3 produced a significant emission. […] For all doses, duplicate wells were used. This experiment was performed according to Yurttaş et al.[52]

[4] = system: L929 murine fibroblast cell line; test: MTT cell viability / cytotoxicity on L929 (healthy cells); assay type: cell-based, mouse; details: Mus musculus, L929, L929 healthy cell line, mean ± S.D. of three determinations
Method: (§2) In 75 cm^2 sterile plastic tissue culture flasks, the human lung adenocarcinoma A549 and the mouse fibroblast L929 cell lines were cultured in 90% RPMI (Sigma, Deisenhofen, Germany) media supplemented with 10% (v/v) FBS (Gibco, Paisley, UK) and adherent monolayers of penicillin/streptomycin (100 units/mL) from Gibco, Paisley, UK. These cells were cultured at 37 °C in an environment that was humidified and contained 5% CO2.
as §1

[5] = system: A549 human lung cancer cell line; test: MTT cell viability / cytotoxicity on A549; assay type: cell-based; details: for IC50: Homo sapiens, A549, A549 cell line, MTT, mean ± S.D. of three determinations
Method: as §2, §1

IC50 (MMP-9 enzyme) | inhibition at 100 µg/mL (MMP-9 enzyme) | melting point | Structure (SMILES) | mitochondrial membrane depolarization % (A549 cells [1]) | mitochondrial membrane polarization % (A549 cells [1]) | Q1: necrotic cells (A549 cells [2]) | Q2: late apoptotic cells (A549 cells [2]) | Q3: viable cells (A549 cells [2]) | Q4: early apoptotic cells (A549 cells [2]) | IC50 (C6 rat glioma cell line) | % S (A549 cells [3]) | G0/G1% (A549 cells [3]) | G2/M % (A549 cells [3]) | % (+): caspase-3 activity positive cells (caspase-3) | % (−): caspase-3 activity negative cells (caspase-3) | IC50 [4] | IC50 [5] | Q2 + Q4: early and late apoptotic cells (A549 cells [2]) | SI (L929/A549) ([5]; selectivity index = IC50 on normal cells/IC50 on cancer cells)
24.5 ± 2.12 µM | > 75% | 207 to 209 °C | CC(=O)Nc1ccccc1OCc1nnc(SCC(=O)Nc2nc3ccc(F)cc3s2)o1 [Compound 4f, 2-[(5-((2-Acetamidophenoxy)methyl)-1,3,4-oxadiazol-2-yl)thio]-N-(6-fluorobenzothiazol-2-yl)acetamide] | 13.03% | 85.97% | 26.25% | 6.7% | 58.53% | 8.51% | 13 ± 3.72 µM | 0.0% | 63.53% | 36.47% | 3.4% | 97.1% | 19.4 ± 0.89 µM | 6.62 ± 0.32 µM | – | –
1.65 ± 0.21 µM | > 75% | 188 to 191 °C | CC(=O)Nc1ccccc1OCc1nnc(SCC(=O)Nc2ccccc2)o1 [Compound 4h, 2-[(5-((2-Acetamidophenoxy)methyl)-1,3,4-oxadiazol-2-yl)thio]-N-phenylacetamide] | 8.75% | 90.74% | 26.94% | 7.28% | 53.94% | 11.84% | > 1000 µM | 0.0% | 89.66% | 10.34% | 2.7% | 97.5% | 31.4 ± 1.76 µM | < 0.14 µM | 19.20% | –
19.5 ± 3.18 µM | > 50% | 213 to 216 °C | CC(=O)Nc1ccccc1OCc1nnc(SCC(=O)Nc2nc3ccc(C)cc3s2)o1 [Compound 4e, 2-[(5-((2-Acetamidophenoxy)methyl)-1,3,4-oxadiazol-2-yl)thio]-N-(6-methylbenzothiazol-2-yl)acetamide] | – | – | – | – | – | – | 458 ± 28.2 µM | – | – | – | – | – | 29.9 ± 3.01 µM | 43 ± 2.79 µM | – | 0.69
